In patent US20160338955A1, “ANTIGEN-SPECIFIC IMMUNOTHERAPY USING TOLERIZING LIPOSOMES” (PLS-Design GmbH, priority 2015, published 2016):
In brackets after ≈: the same amount, converted by molar mass. Like-named read-outs stand apart in the source and are kept apart here.

Tests used:
[1] = Release of calcitriol from PLGA-PEG-PLGA hydrogels; format: physicochemical
Description: The biodegradable PLGA-PEG-PLGA triblock polymer described in this example has a PLG/PEG weight ratio of 2.3 (70/30), and a lactide/glycolide molar ratio of approx. 15/1. Synthesis of the triblock copolymer is performed as described in Example 2.1. An aliquot of 20 μl of a stock solution of calcitriol (2 mg/ml; 4.8 mM) in absolute ethanol (Cayman/Biomol GmbH) is combined with 160 μl of 25% gel solution and 20 μl of 10×PBS (final concentration of calcitriol: 0.2 mg/ml or 0.48 mM; final concentration of ethanol: 10%).
The mixture of 5.1.1 is incubated for 2 minutes at 37° C. to induce gelling and overlayed with 200 μl of 1×PBS. At frequent time points the supernatant is removed by pipetting and stored at 4° C. The removed supernatant is replaced by fresh 200 μl of 1×PBS. Controls of the same concentration of calcitriol in 1×PBS without gel are incubated and sampled in parallel.
After 48 hours the samples and controls are analysed using a Vitamin D ELISA kit, according to the manual of the manufacturer (Euroimmun AG, Luebeck). The assay is applicable for the determination of 25-0H vitamin D3 and other hydroxylated vitamin D3 molecules, and sufficiently linear from 4.0 to 120 ng/ml of 25-0H vitamin D3 (cross reactivity with calcitriol: 45%).
In brief, 20 μl of diluted samples are mixed with 230 μl of sample buffer containing a biotin-labed 25-0H vitamin D derivative. 200 μl of the mixture are transferred to an ELISA well of an 8-well strip and incubated at room temperature for 2 hours. The wells are washed with 3×300 μl washing buffer. Peroxidase labelled steptavidin-conjugate (100 μl) is added and incubated for a further hour. The well is again washed 3× with 300 μl washing buffer. Tetramethyl-benzidine (100 μl) substrate solution is added and developed until sufficient coloring. The reaction is stopped by addition of 100 μl 0.5 M sulphuric acid and measured spectrometrically at 420 nm with reference 650 nm.

[2] = humans; cited from earlier work
[3] = Solubility; format: physicochemical
Description: In water, the solubility of OVA is about one gram per ml of water. Methylated BSA (mBSA) has been used for immunization at a concentration of 50 mg/ml of 0.9% NaCl (Gent et al., 2014).
In water DexP (MW 516.4) is soluble at a concentration of 50 mg/ml (product information of Santa Cruz Biotechnology), in PBS at a concentration of at least 25 mg/ml (Anderson et al., 2010), and in 10 mM HEPES and 135 mM NaCl, pH 6.7, at a concentration of at least 50 mg/ml (Koning et al., 2006).

[4] = tested on: experimental autoimmune encephalomyelitis; conditions: i.p. 5 μg/kg every 2 days; cited from earlier work
[5] = cited from earlier work
[6] = rat, in vivo; cited from earlier work
[7] = tested on: Langerhans cells (LCs) and dermal dendritic cells (DDCs); conditions: LCs and DDCs primed in vitro; cited from earlier work

## C=C1/C(=C\C=C2/CCC[C@]3(C)[C@@H]([C@H](C)CCCC(C)(C)O)CC[C@@H]23)C[C@@H](O)C[C@@H]1O [calcitriol, 1α,25-dihydroxyvitamin D3]
[1]; after 12 hours
  hydrogel-embedded calcitriol released: approx. 45%
[1]; after 24 hours
  hydrogel-embedded calcitriol released: approx. 65%
[1]; after 48 hours
  hydrogel-embedded calcitriol released: approx. 85%
[1]; within the first 2 hours
  hydrogel-embedded calcitriol released: approx. 15%
[2]
  single oral dose relatively well tolerated (grade 1 to 2 adverse events): up to 165 μg
[3]; 1:5 ethanol:PBS, pH 7.2, aqueous with cosolvent or surfactant or cyclodextrin, read-out: solubility in a 1:5 solution of ethanol:PBS, pH 7.2
  solubility: ~0.15 mg/mL (≈ 0.36 mM)
[3]; ethanol, organic solvent or mixture, read-out: solubility in ethanol
  solubility: ~50 mg/mL (≈ 120 mM)
[4]
  treated mice in which appearance of paralysis was prevented: 70%
[5]; in 0.2 ml normal saline
  calcitriol dose that can be administered as single bolus i.p. injection: up to 500 ng/mouse
[5]; single bolus i.p.
  calcitriol dose above which mice become hypercalcemic on day 2 or 3: higher than 750 ng/mouse
[6]
  serum level of calcitriol to be kept below to avoid toxicity: below 250 ng/ml
[7]
  calcitriol concentration required to effectively induce FoxP3(+)Tregs and FoxP3(−)IL-10(+)TR1 cells: 2.5 µM
